According to PMC9241669, “Allantodapsone is a Pan-Inhibitor of Staphylococcus aureus Adhesion to Fibrinogen, Loricrin, and Cytokeratin 10” (Microbiology Spectrum, 2022):

Assays:
Format in all cases: cell-based, Staphylococcus aureus
S. aureus SH1000 = assay: Adhesion of S. aureus SH1000 to fibronectin; conditions: fibronectin 20 μg/mL, Fig. S2
Method: Adhesion assays were carried out according to Hartford et al. ([37]). Briefly, plates were coated with 10 μg/mL fibrinogen (Calbiochem, Darmstadt, Germany) or 20 μg/mL fibronectin (Sigma-Aldrich, Ireland) for 2 h at 37°C or for 16 h at 4°C. Plates were blocked with 1% BSA at 37°C for 1 h and washed 3 times in PBS. Washed bacteria were incubated at 37°C for 2 h. Adherent bacteria were washed three times in PBS and fixed in 5–9% formaldehyde at room temperature for 30 min. Wells were washed three times in PBS and stained using 5% crystal violet for 20 min. Wells were washed three times in PBS, and the crystal violet solubilized using 5% acetic acid. Plates were read at 570 nm on a Wallac Victor2, (Shelton, CT, USA). The minimum adhesion inhibitory concentration (MAIC) was determined as the concentration inhibiting greater than 90% bacterial adhesion. […]
fibronectin. Fibronectin was used to coat plates at 4 °C overnight at 20 μg/mL.
Wells were washed with PBS and blocked with 1% BSA. Washed bacteria (OD600 of 1) were added with the relevant concentration of allantodapsone or vehicle control, and incubated for 2 hours at 37 °C. Adherent cells were washed, fixed, stained with crystal violet and wells further washed. The dye was dissolved in acetic acid and the absorbance measured at 570 nm. […]

S. aureus Newman [1] = assay: Adhesion of S. aureus Newman to GST-L2v loricrin; conditions: for concentration giving full inhibition of adhesion to L2v loricrin: S. aureus Newman, GST-L2v
Method: (§1) FIG 4 Allantodapsone inhibits S. aureus adhesion to loricrin and cytokeratin 10. Dose-response curve for adhesion of S. aureus Newman to GST-L2v loricrin (A) and CK10 (C). (B) Inhibition of recombinant ClfB N2N3 binding to immobilized GST-L2v loricrin by allantodapsone. (D) Inhibition of S. aureus Newman adhesion to GST-L2v loricrin by allantodapsone derivatives. Purified GST-L2v or CK10 were used to coat plates at 4°C overnight. Wells were washed with PBS and blocked with 1% BSA. Washed bacteria (OD600 of 1) were mixed with allantodapsone or vehicle control before being added to the wells and incubated for 2 h at 37°C. Adherent cells were washed, fixed, and stained with crystal violet, and wells further washed. The dye was dissolved in acetic acid, and the absorbance measured at 570 nm. GST-L2v was used at 20 μM in A and D. CK10 was used at 10 nM. Test compounds were incubated with bacteria at 80 μM and normalized to the DMSO vehicle control in D. For data presented in B, recombinant ClfB was incubated with allantodapsone (100 μM) or DMSO (1%) for 30 min prior to being added to wells coated with recombinant GST-L2v loricrin. Bound ClfB was detected using peroxidase-conjugated anti-His monoclonal antibody in an ELISA. The graphs shown are representative of three independent experiments. Statistics were carried out using one-way ANOVA followed by the Dunnett’s posttest using GraphPad Prism version 9.0.
Adhesion assays were carried out according to Hartford et al. ([37]). Briefly, plates were coated with 10 μg/mL fibrinogen (Calbiochem, Darmstadt, Germany) or 20 μg/mL fibronectin (Sigma-Aldrich, Ireland) for 2 h at 37°C or for 16 h at 4°C. Plates were blocked with 1% BSA at 37°C for 1 h and washed 3 times in PBS. Washed bacteria were incubated at 37°C for 2 h. Adherent bacteria were washed three times in PBS and fixed in 5–9% formaldehyde at room temperature for 30 min. Wells were washed three times in PBS and stained using 5% crystal violet for 20 min. Wells were washed three times in PBS, and the crystal violet solubilized using 5% acetic acid. Plates were read at 570 nm on a Wallac Victor2, (Shelton, CT, USA). The minimum adhesion inhibitory concentration (MAIC) was determined as the concentration inhibiting greater than 90% bacterial adhesion.

S. aureus Newman [2] = assay: Adhesion of S. aureus Newman to cytokeratin 10 (CK10); conditions: CK10 10 nM
Method: as §1, with “Test compounds were incubated with bacteria at 80 μM and normalized to the DMSO vehicle control in D. For data presented in B, recombinant ClfB was incubated with allantodapsone (100 μM) or DMSO (1%) for 30 min prior to being added to wells coated with recombinant GST-L2v loricrin.” left out, “The graphs shown are representative of three independent experiments. Statistics were carried out using one-way ANOVA followed by the Dunnett’s posttest using GraphPad Prism version 9.0.” left out
Adhesion assays were carried out according to Hartford et al. ([37]). […] Plates were read at 570 nm on a Wallac Victor2, (Shelton, CT, USA). The minimum adhesion inhibitory concentration (MAIC) was determined as the concentration inhibiting greater than 90% bacterial adhesion.

S. aureus Newman [3] = assay: Agglutination (fibrinogen clumping) assay; conditions: 100 μM allantodapsone; 5 mg/mL fibrinogen; stationary phase
Method: V. Microbiology: Materials and Methods
The MTT toxicity assay (1) (Vybrant MTT Cell Proliferation Assay, Molecular Probes, Or, USA) was used to measure cytotoxicity. Myeloid lineage, U-937 cells (2) were grown in RPMI-1640 (Gibco) culture medium supplemented with 10% foetal calf serum, 1% L-glutamine and 1% Penicillin/Streptomycin (Gibco). U-937 cells were centrifuged and cells diluted with fresh medium containing 1.2 mM MTT solution to a concentration of (5-6 x 10^6 per mL) and incubated at 37 °C for 2 h. Cells were centrifuged and the pellet dissolved in DMSO. The absorbance was read at 490 nm using the Wallac Victor2, (Shelton, Connecticut, USA).
Platelet aggregation was performed in platelet rich plasma according to O’Brien et al.
S. aureus Newman (stationary phase) was washed and diluted to an OD600 of 2.5.
This was mixed with 10 mg/mL of fibrinogen in 1:1 ratio resulting in a final concentration 5 mg/mL fibrinogen. Fibrinogen -bacteria aggregates clump and settle at the bottom of the tube resulting in a clear solution. These were compared to the turbid bacterial suspension in buffer by visual inspection. […]
of S. aureus Newman was used as an agonist to stimulate platelet aggregation. The FcγRIIa antibody IV.3 (StemCell Technologies, London, UK) was used at a concentration of […]. […] Data was analysed by repeated measures ANOVA followed by a multiple comparison Dunnett’s test. […]

S. aureus Newman [4] = assay: Antimicrobial assay (bacterial growth in BHI broth); conditions: overnight in BHI broth, allantodapsone up to 100 μM, versus vehicle control
Method: S. aureus was grown in BHI broth shaking overnight at 37°C in the presence of a range of concentrations of allantodapsone, dapsone, or ampicillin as control. Absorbance was measured the following day at 570 nm. Data have been normalized to the relevant vehicle control (1% DMSO for allantodapsone and dapsone and water for ampicillin). […] Error bars represent SEM.
S. aureus was grown overnight in BHI broth at 37°C in shaking incubator. Wells were inoculated with 10 μL of overnight culture into 90 μL of broth containing the test compounds or controls. A growth control containing no agents was used (positive control), a sterility control of broth alone was included, and vehicle controls were included for each test compound. Plates were incubated overnight at 37°C and absorbance measured at 570 nm the following day using a Wallac Victor2, (Shelton, CT, USA).

SMILES: Nc1ccc(S(=O)(=O)c2ccc(NCN3C(=O)NC(=O)C(=O)C3=O)cc2)cc1 [Allantodapsone]
- inhibition of adhesion to fibronectin (words) (S. aureus SH1000): does not inhibit
- inhibition of adhesion to fibronectin (words) (S. aureus SH1000; listed as allantodapsone): did not inhibit
- concentration giving full inhibition of adhesion to L2v loricrin (S. aureus Newman [1]): 40 µM
- concentration giving full inhibition of adhesion to L2v loricrin (S. aureus Newman [1]; listed as allantodapsone): 16.1 µg/mL
- IC50 (S. aureus Newman [1]; Staphylococcus aureus, NEWMAN, read-out: IC50, inhibition of adhesion to L2v loricrin): 9.87 µM
- inhibition of adhesion to CK10 (S. aureus Newman [2]): dose dependent inhibition
- inhibition of clumping of bacteria in fibrinogen (S. aureus Newman [3]): did not inhibit
- inhibition of bacterial growth (words) (S. aureus Newman [4]): does not inhibit bacterial growth
- inhibition of bacterial growth (words) (S. aureus Newman [4]; listed as allantodapsone): no inhibition of bacterial growth
